Series [1] relates to P. falciparum Dd2 (Multidrug Resistant). The series can be described thus: Malaria model, multidrug resistant P. falciparum. The format is cell-based. As for the experimental part:
(§1) The compounds were tested in a malaria model using both chloroquine sensitive and multidrug resistant P. falciparum. The malaria model was the same as published in JAC Advance Access published online on Jul. 30, 2008, Journal of Antimicrobial Chemotherapy, doi:10.1093/jac/dkn315, the contents of which are hereby incorporated by reference, and the data is summarized in the table below.
(§2) Briefly, the assay involves exposing both chloroquine sensitive and multidrug resistant P. falciparum to the compounds. After one hour of exposure to the highest concentration of the compound, followed by removal of the compound, the growth of all stages of P. falciparum was observed. The reduction in the growth stages was then compared with untreated control parasites. […] The presence of strong inhibition (defined herein as 10% growth) of all parasite stages was evaluated when the parasites were exposed to various concentrations of various compounds.

Series [2] has as its system P. falciparum D6 (Chloroquine Sensitive). Nature of the series: Malaria model, chloroquine sensitive P. falciparum. The series is classed as cell-based. As for the experimental part: as §1, §2
Series [3] deals with ang-2 mRNA. The series can be described thus: Quantitative reverse transcription-PCR for ang-2 in bEnd.3 cells. The format is cell-based, murine. Conditions: 10 μM, 6.5 hours. As for the experimental part: bEnd.3 cells were seeded equally into six T-75 flasks and 24 hours later were treated with 0, 1, 5, 10, 15, and 20 μM concentrations of gentian violet (Sigma-Aldrich, no. G2039) in ethanol for 6.5 hours. RNA was extracted and purified using TRI reagent (Sigma-Aldrich, T9424) and measured using spectrophotometer (Perkin-Elmer UV/VIS, Wellesley, Mass.). RNA (1 μg) was used for DNase Amplification (Invitrogen, no. 18068-015, Carlsbad, Calif.) followed by first-strand synthesis for reverse transcription-PCR (Invitrogen SuperScript, no. 12371-019). 96-well Optical Reaction Plate (ABI PRISM, no. 128, Applied Biosystems, Foster City, Calif.) was used for the reverse transcription-PCR reaction. A measure of 2.5 μl of template, which had been diluted 1:10 in crosslinked water, was used in each well and the experiment was performed in triplicate. Ang pt2 (Applied Biosystems, Taqman Gene Expression Assay, Mm00545822_ml) and 18S (Applied Biosystems Taqman Gene Expression Assay, Hs99999901_sl) primers were used along with crosslinked molecular grade water (Cellgro, Mediatech, Inc., Herndon, Va.) and master mix (Applied Biosystems TaqMan Fast Universal PCR Master Mix (2^x)). The reaction was run on the 7900 Applied Biosystems Reader for Absolute Quantification for 96-well plates. C values were analyzed by ΔΔCt method, and the standard error of the mean was calculated (FIG. 3b). The same protocol was used for treatment with brilliant green (Sigma, no. B6756), except that the concentrations used were 0, 0.1, 0.25, 0.5, and 0.75 μM (FIG. 3a).

In series [4] the test system is T. brucei. The series can be described thus: Parasitemia in mice injected with T. brucei. The series is classed as in vivo. As for the experimental part:
In one study, the parasite was T. brucei. Mice were injected with parasites (5,000 parasites/mouse), and injected (s.c) with imipramine blue (1 mg/mice/day) starting from the day the mice were injected with parasites. The parasitemia level in blood was counted on each following day.
The experiment was repeated with IV administration of imipramine blue (100 μg of imipramine blue). […] Accordingly, it is important to find a therapeutic window (where treatment of parasitemia can be effected, without unwanted toxic effects). This therapeutic window is in the range of between about 150 and 250 μg.

Series [5] relates to Leishmania amazonensis. The series can be described thus: Leishmaniasis model, in vitro promastigotes, parasites/mL. The series is classed as cell-based. Conditions: for activity in first experiment: 1 and 0.1 mcM (ethanol 0.1 and 0.01%). As for the experimental part: The experiments were started using water as a solvent for the triarylmethanes (TPM, standing for triphenylmethane). However, water was not an effective solvent, so ethanol was substituted. Ethanol is toxic to leishmania, so a control group was tested with a higher ethanol concentration than that present on the TPM groups.
Each of FIGS. 4-7 has five or six groups with 50, 10, 1 and 0.1 mcM (micromolar) of TPMs (1, 2, 3 and 5) in ethanol, and two control groups: Ethanol 5% (50 mcM) and positive control.
The number of parasites was counted only after 48 hours. Again, an ethanol control at 0.1% was used.
The IC50 was calculated by the method described by Hills et al. (18) and Huber and Koella (19). Briefly, Hills proposed finding two concentrations, X1 and X2, such that the parasite density, Y1, at concentration X1 (and all lower concentrations) was more than half of the density found in the control, Y0, and that the parasite density, Y2, at concentration X2 (and all higher concentrations) was less than half of Y0. The IC50 was then found by linear extrapolation between X1 and X2: log(IC50)=log(X1)|[(Y1−Y0/2)/(Y1−Y2)][ log(X2)−log(X1)].
Compounds TPM 6 (MW=400.60), TPM 7 (MW=672.86), TPM 9 (MW=521.76) and TPM 10 (MW=662.95) were evaluated with the same methodology. They were tested using a maximum of 1% of ethanol in each treatment group. The ethanol control was also evaluated with the same concentration (1%).
The treatment groups were TPM 6 at a dosage of 0.05; 0.01; 0.005 and 0.001 mcM.

Series [6] has as its system leukemia and lymphoma cell lines. The series can be described thus: Cell growth inhibition in leukemia and lymphoma cell lines. The format is cell-based.
Series [7] relates to myeloma cells (MM.1S, MM.1R, RPMI8226, and U266). The series can be described thus: MTT cell viability assay, myeloma cells. The format is cell-based. As for the experimental part: (§3) Imipramine blue was obtained from the department of dermatology, Emory University. MTT assays for myeloma cells (MM.1S, MM.1R, RPMI8226, and U266) were used to evaluate the cell viability. AnnexinV staining and cell cycle analysis was done by flow cytometry to assess the level of apoptosis and analyze cell cycle arrest. Western blotting was performed using antibodies to analyze the impact of imipramine blue on various targets. Bone marrow from myeloma patients were obtained with consent from the Winship Cancer Institute.

Series [8] can be described thus: ESR spectrum with superoxide dismutase. Conditions: room temperature ESR, conditions as in Li et al. As for the experimental part: Li used ESR to confirm the production of NADPH-dependent.O2—by isolated endosomes (Li et al., Molecular and Cellular Biology, January 2006, p. 140-154, 26(1):140-154 (2006)). ESR assays were conducted at room temperature using a Bruker model EMX ESR spectrometer (Bruker). Vesicular fractions from each sample were mixed with the spin trap, 50 mM 5,5-dimethyl-1-pyrroline N-oxide (DMPO), in a total volume of 500 μl of PBS, pH 7.4. This solution contained iminodiacetic acid-chelating resin (10 ml/liter; Sigma-Aldrich). The reaction was initiated by adding NADPH to 100 μM and was immediately placed into the ESR spectrometer. DMPO-hydroxyl radical adduct formation was assayed for 10 min. Instrument settings were as follows: receiver gain, 1×10^6; modulation frequency, 100 kHz; microwave power, 40.14 mW; modulation amplitude, 1.0 G; and sweep rate, 1 G/s.

The subject of series [9] is HIF2a. The series can be described thus: HIF2a expression model (quantitative RT-PCR). Conditions: WM35 PKB cells, 5 micromolar, 24 hours. The series is classed as cell-based. As for the experimental part: In this expression model, WM35 PKB cells are exposed to 5 micromolar of test compounds for 24 hours. At the end of this period, cells are harvested for RNA, which is then reverse transcribed into cDNA, and levels of HIF2a message are quantified using quantitative RT-PCR and corrected for a housekeeping RNA message.

The subject of series [10] is CD38 positive population of primary cells from myeloma patients. The series can be described thus: Primary cells from myeloma patients, cell killing. Conditions: alone as a single agent or in combination with bortezomib. The format is cell-based, human. As for the experimental part:
as §3

In series [11] the test system is myeloma cells. Nature of the series: AnnexinV staining and cell cycle analysis by flow cytometry. The format is cell-based. As for the experimental part: as §3
A general note: Flow cytometry measures light scatter and fluorescence of single cells or particles in a stream.

Series [12] deals with myeloma cells. Nature of the series: Western blotting of myeloma cells. The format is cell-based. As for the experimental part:
as §3
Background: In western blotting, separated proteins are transferred to a membrane and probed.

In series [13] the test system is bloodstream form of T. brucei. Nature of the series: Bloodstream form of T. brucei, live cells, overnight treatment. The format is cell-based. Conditions: at 500 nm. As for the experimental part: These and other compounds were tested on live cells.
The experiment was conducted with one million cells of the bloodstream form of T. brucei. After over night treatment with different compounds (at concentrations of 50 and 100 μmolar), cells were counted and plotted with controls.

The mark [14] stands for this setting: 48 hours, linear extrapolation method of Hills.
[15] abbreviates: summary table of experiments 1-4.

Where two headings read alike, the source gives them in different places.

As a reminder, the IC50 is the concentration that inhibits the measured activity by half.

As to `CCN(CC)CCCC(C)Nc1ccnc2cc(Cl)ccc12` (stereo not drawn) [Chloroquine, reference compound], the IC50 in series [1] (Plasmodium falciparum, DD2, read-out: IC50 (nM) vs P. falciparum Dd2 (Multidrug Resistant)) was determined as 140 nM; in series [2] (Plasmodium falciparum, D6, read-out: IC50 (nM) vs P. falciparum D6 (Chloroquine Sensitive)), 7.9 nM.
As for `c1ccc([I+]c2ccccc2)cc1` [DPI, diphenyliodonium], the “decrease in ang-2 expression compared to control” value in series [3] is recorded as 80%.
In the case of `CCN(CC)c1ccc(C(=C2C=C3CCc4ccccc4N(CCCN(C)C)C3=CC2)c2ccc(N(CC)CC)cc2)cc1` [TPM 2], in series [4] (s.c. 1 mg/mice/day from day of infection), the “number of parasite/ml of blood versus control” value is given as “slightly less”. The “survival of infected mice” value in series [4] (s.c. 1 mg/mice/day from day of infection, 5,000 parasites/mouse) is listed as “died at day 4”. Further, the “activity in first experiment” value in series [5] is “have shown activity”. This compound returned a growth inhibition in [5] (1 mcM, 48 hours) of 72%. Further, the results for the half-inhibitory concentration (IC50) in series [5] (setting [14]) and in series [5] (setting [15]) were around 600 nM and 600 nM, respectively.
For `CCN(CC)c1ccc(C(c2ccc(N(CC)CC)cc2)=c2ccc3c(c2)CCc2ccccc2[N+]=3CCCN(C)C)cc1` [TPM 2], the lethality to mice entry in series [4] (1 mg IV) is on record as “killed the mice”. In [4] (IV, 100 μg, mouse model), the decrease in parasitemia was found to be 70%. Further, the cell growth entry in series [6] is recorded as “induced cell growth inhibition”. For the same compound, in series [7] (MM.1S cells), the “growth advantage by cytokines IL-6 and IGF1” value is “overcomes the growth advantage”. Moreover, in [7] (myeloma cells), the “combination with bortezomib or perifosine” value was “additive benefit in combination”. In addition, the growth inhibition entry in series [7] (treated up to 72 hrs, between 6 uM to 10 μM) is “more than 80%”. The “radical formation with superoxide (ESR)” value in series [8] is on record as “appear to form a radical by reacting with superoxide”. Further, the “inhibition of HIF2a expression” value in series [9] is “around 90%”. Further, the IC50 is 826 nM in series [1] (Plasmodium falciparum, DD2; read-out: IC50 (nM) vs P. falciparum Dd2 (Multidrug Resistant)) and around 2500 nM in [2] (Plasmodium falciparum, D6; read-out: IC50 (nM) vs P. falciparum D6 (Chloroquine Sensitive)). The “cell killing of CD38 positive population” value in series [10] is “very significant cell killing”. In series [11] (MM.1S cells), the cell cycle profile result is given as “induces both cell cycle arrests as well as apoptosis”. Moreover, the “apoptosis by annexin V staining” value in [11] (similar concentrations (6 uM to 10 μM)) is on record as “induced to undergo apoptosis”. Besides, the “cleavage of procaspases (caspase 8, 9, 3 and PARP)” value in [12] (0.5 μM to 10 μM, about 48 hrs) was “extensively cleaved”. Also, the phos-AKT level result in [12] (MM.1S) is “not significantly reduced”. The “phos-p53 and GADD45 levels” value in series [12] (MM.1S) was “upregulaed”. Also, the “cell toxicity to trypanosome toxicity” value in series [13] is “favorable”.
As to `CCN(CC)c1ccc(C(=C2C=CC3C(C[C@H](N)C(=O)O)=CNC3=C2)c2ccc(N(CC)CC)cc2)cc1` (stereo partly drawn) [TPM 5], in series [5], the “activity in first experiment” value is listed as “did not”.
On to `CCN(CC)c1ccc(C(=C2C=CC(C)C=C2)c2ccc(N(CC)CC)cc2)cc1` (stereo not drawn) [TPM 6], for which the “relative activity among compounds tested” value in series [5] is reported as “most active compound”. Besides, the growth inhibition is 41% in series [5] (0.01 mcM, 48 hours); 59% in series [5] (0.05 mcM, 48 hours); 98% in series [5] (0.1 mcM, 48 hours); 98% in [5] (0.5 mcM, 48 hours); 100% in [5] (1 mcM, 48 hours); 100% in series [5] (5 mcM, 48 hours). For the same compound, the half-maximal inhibitory concentration (IC50) in series [5] (setting [14]) is around 20 nM; in series [5] (setting [15]), 20 nM; in series [1] (Dd2; read-out: IC50 (nM) vs P. falciparum Dd2 (Multidrug Resistant)), 48.9 nM; in [2] (D6; read-out: IC50 (nM) vs P. falciparum D6 (Chloroquine Sensitive)), 61.7 nM. Further, the “active / inactive in the malaria assay” value in series [2] (summary over D6 and Dd2 strains) is given as “active”.

The record behind these values is US9358226B2, “Triarylmethane analogs and their use in treating cancers” (Emory University, priority 2007, dated 2016).
